Here are results for 4 molecules from ChEMBL document CHEMBL3044749, “Synthesis, characterization, in vitro hydrolysis and pharmacodynamic profiles of potential novel mutual prodrugs of N-(2,3-xylyl anthranilic acid)” (Med Chem Res, 2013).

Each structure is given as a SMILES string.

Data set [1] has as its system Rattus norvegicus. The experiment in a line: Anti-inflammatory activity in Wistar albino Rattus norvegicus (rat) assessed as inhibition of carrageenan-induced paw edema at 13 mg/kg, po administered 1 hr prior to carrageenan injection measured after 4 hr by mercury plethysmometer (reference value: 0%). The data set is classed as functional.
Data set [2] has as its system Rattus norvegicus. The experiment in a line: Anti-inflammatory activity in Wistar albino Rattus norvegicus (rat) assessed as inhibition of carrageenan-induced paw edema at 13 mg/kg, po administered 1 hr prior to carrageenan injection measured after 2 hr by mercury plethysmometer (reference value: 0%). It is filed as functional. Background: Carrageenan injected into the paw causes an acute inflammation.

Data set [3] deals with Rattus norvegicus. The experiment in a line: Anti-inflammatory activity in Wistar albino Rattus norvegicus (rat) assessed as inhibition of carrageenan-induced paw edema at 13 mg/kg, po administered 1 hr prior to carrageenan injection measured after 1 hr by mercury plethysmometer (reference value: 0%). The data set is classed as functional.
In data set [4] the test system is Rattus norvegicus. In words: Anti-inflammatory activity in Wistar albino Rattus norvegicus (rat) assessed as inhibition of carrageenan-induced paw edema at 13 mg/kg, po administered 1 hr prior to carrageenan injection measured after 6 hr by mercury plethysmometer (reference value: 0%). It is filed as functional.
Data set [5] deals with Mus musculus. The experiment in a line: Analgesic activity in Swiss Mus musculus (mouse) assessed as inhibition of acetic acid-induced abdominal writhing at 13 mg/kg, po administered 1 hr prior to acetic acid injection measured for 10 min. Particulars: Abdomen. It is filed as functional.
The test system of data set [6] is Rattus norvegicus. The experiment in a line: Anti-inflammatory activity in Wistar albino Rattus norvegicus (rat) assessed as inhibition of carrageenan-induced paw edema at 13 mg/kg, po administered 1 hr prior to carrageenan injection measured after 8 hr by mercury plethysmometer (reference value: 0%). It is filed as functional.
The test system of data set [7] is Rattus norvegicus. In words: Gastrointestinal toxicity in Wistar albino Rattus norvegicus (rat) assessed as ulcerogenicity index at 13 mg/kg, po administered for 7 days measured on day 8 (reference value: 0 no unit). It is filed as organism-based. Details: dose 13 mg/kg, route oral. The following applies: in vivo, 168 h.
The test system of data set [8] is Rattus norvegicus. The experiment in a line: Anti-inflammatory activity in Wistar albino Rattus norvegicus (rat) assessed as inhibition of carrageenan-induced paw edema at 13 mg/kg, po administered 1 hr prior to carrageenan injection measured after 3 hr by mercury plethysmometer (reference value: 0%). The data set is classed as functional.
Data set [9] deals with Rattus norvegicus. The experiment in a line: Anti-inflammatory activity in Wistar albino Rattus norvegicus (rat) assessed as inhibition of carrageenan-induced paw edema at 23 mg/kg, po administered 1 hr prior to carrageenan injection measured after 1 hr by mercury plethysmometer (reference value: 0%). It is filed as functional.
The subject of data set [10] is Rattus norvegicus. In words: Gastrointestinal toxicity in Wistar albino Rattus norvegicus (rat) assessed as ulcerogenicity index at 23 mg/kg, po administered for 7 days measured on day 8 (reference value: 0 no unit). The data set is classed as organism-based. Details: dose 23 mg/kg, route oral. The following applies: in vivo, 168 h.
Data set [11] deals with Rattus norvegicus. In words: Anti-inflammatory activity in Wistar albino Rattus norvegicus (rat) assessed as inhibition of carrageenan-induced paw edema at 23 mg/kg, po administered 1 hr prior to carrageenan injection measured after 4 hr by mercury plethysmometer (reference value: 0%). It is filed as functional.
Data set [12] concerns Rattus norvegicus. The experiment in a line: Anti-inflammatory activity in Wistar albino Rattus norvegicus (rat) assessed as inhibition of carrageenan-induced paw edema at 23 mg/kg, po administered 1 hr prior to carrageenan injection measured after 8 hr by mercury plethysmometer (reference value: 0%). It is filed as functional.
The subject of data set [13] is Rattus norvegicus. In words: Anti-inflammatory activity in Wistar albino Rattus norvegicus (rat) assessed as inhibition of carrageenan-induced paw edema at 23 mg/kg, po administered 1 hr prior to carrageenan injection measured after 6 hr by mercury plethysmometer (reference value: 0%). The data set is classed as functional.
Data set [14] has as its system Mus musculus. The experiment in a line: Analgesic activity in Swiss Mus musculus (mouse) assessed as inhibition of acetic acid-induced abdominal writhing at 23 mg/kg, po administered 1 hr prior to acetic acid injection measured for 10 min. The data set is classed as functional. Particulars: Abdomen.
Data set [15] relates to Rattus norvegicus. The experiment in a line: Anti-inflammatory activity in Wistar albino Rattus norvegicus (rat) assessed as inhibition of carrageenan-induced paw edema at 23 mg/kg, po administered 1 hr prior to carrageenan injection measured after 2 hr by mercury plethysmometer (reference value: 0%). The data set is classed as functional.
In data set [16] the test system is Rattus norvegicus. In words: Anti-inflammatory activity in Wistar albino Rattus norvegicus (rat) assessed as inhibition of carrageenan-induced paw edema at 23 mg/kg, po administered 1 hr prior to carrageenan injection measured after 3 hr by mercury plethysmometer (reference value: 0%). The data set is classed as functional.
In data set [17] the test system is Rattus norvegicus. The experiment in a line: Anti-inflammatory activity in Wistar albino Rattus norvegicus (rat) assessed as inhibition of carrageenan-induced paw edema at 24.65 mg/kg, po administered 1 hr prior to carrageenan injection measured after 6 hr by mercury plethysmometer (reference value: 0%). It is filed as functional.
Data set [18] concerns Rattus norvegicus. In words: Anti-inflammatory activity in Wistar albino Rattus norvegicus (rat) assessed as inhibition of carrageenan-induced paw edema at 24.65 mg/kg, po administered 1 hr prior to carrageenan injection measured after 4 hr by mercury plethysmometer (reference value: 0%). It is filed as functional.
In data set [19] the test system is Rattus norvegicus. The experiment in a line: Anti-inflammatory activity in Wistar albino Rattus norvegicus (rat) assessed as inhibition of carrageenan-induced paw edema at 24.65 mg/kg, po administered 1 hr prior to carrageenan injection measured after 2 hr by mercury plethysmometer (reference value: 0%). It is filed as functional.
Data set [20] has as its system Rattus norvegicus. The experiment in a line: Anti-inflammatory activity in Wistar albino Rattus norvegicus (rat) assessed as inhibition of carrageenan-induced paw edema at 24.65 mg/kg, po administered 1 hr prior to carrageenan injection measured after 1 hr by mercury plethysmometer (reference value: 0%). It is filed as functional.
Data set [21] is described as follows: Stability of the compound assessed as prodrug hydrolysis in non-enzymatic simulated gastric fluid at 37 degC at pH 1.2 measured for 2 hr by UV spectrophotometer analysis. It is filed as physicochemical. The following applies: simulated gi fluid, pH 1.2, 2 h.
Data set [22] concerns Rattus norvegicus. The experiment in a line: Anti-inflammatory activity in Wistar albino Rattus norvegicus (rat) assessed as inhibition of carrageenan-induced paw edema at 24.65 mg/kg, po administered 1 hr prior to carrageenan injection measured after 3 hr by mercury plethysmometer (reference value: 0%). The data set is classed as functional.
Data set [23] can be described thus: Half life in simulated intestinal fluid at 37 degC at pH 7.4 by UV spectrophotometer analysis. It is filed as ADME.
The test system of data set [24] is Rattus norvegicus. The experiment in a line: Gastrointestinal toxicity in Wistar albino Rattus norvegicus (rat) assessed as ulcerogenicity index at 24.65 mg/kg, po administered for 7 days measured on day 8 (reference value: 0 no unit). The data set is classed as organism-based. On the set-up: dose 24.65 mg/kg, route oral. The following applies: in vivo, 168 h.

The test system of data set [25] is Rattus norvegicus. In words: Anti-inflammatory activity in Wistar albino Rattus norvegicus (rat) assessed as inhibition of carrageenan-induced paw edema at 24.65 mg/kg, po administered 1 hr prior to carrageenan injection measured after 8 hr by mercury plethysmometer (reference value: 0%). The data set is classed as functional.
The nature of data set [26]: Half life in simulated gastrointestinal fluid at 37 degC at pH 1.2 by UV spectrophotometer analysis. The data set is classed as ADME.
In data set [27] the test system is Mus musculus. The experiment in a line: Analgesic activity in Swiss Mus musculus (mouse) assessed as inhibition of acetic acid-induced abdominal writhing at 24.65 mg/kg, po administered 1 hr prior to acetic acid injection measured for 10 min. The data set is classed as functional. The following applies: Abdomen. In general terms: Writhing tests count abdominal constrictions after an irritant is injected.

The test system of data set [28] is Rattus norvegicus. In words: Anti-inflammatory activity in Wistar albino Rattus norvegicus (rat) assessed as inhibition of carrageenan-induced paw edema at 27.65 mg/kg, po administered 1 hr prior to carrageenan injection measured after 1 hr by mercury plethysmometer (reference value: 0%). The data set is classed as functional.
In data set [29] the test system is Mus musculus. The experiment in a line: Analgesic activity in Swiss Mus musculus (mouse) assessed as inhibition of acetic acid-induced abdominal writhing at 27.65 mg/kg, po administered 1 hr prior to acetic acid injection measured for 10 min. Particulars: Abdomen. The data set is classed as functional.
The subject of data set [30] is Rattus norvegicus. The experiment in a line: Gastrointestinal toxicity in Wistar albino Rattus norvegicus (rat) assessed as ulcerogenicity index at 27.65 mg/kg, po administered for 7 days measured on day 8 (reference value: 0 no unit). It is filed as organism-based. Details: dose 27.65 mg/kg, route oral. Particulars: in vivo, 168 h.
For data set [31], the system named is Rattus norvegicus. In words: Anti-inflammatory activity in Wistar albino Rattus norvegicus (rat) assessed as inhibition of carrageenan-induced paw edema at 27.65 mg/kg, po administered 1 hr prior to carrageenan injection measured after 6 hr by mercury plethysmometer (reference value: 0%). The data set is classed as functional.
In data set [32] the test system is Rattus norvegicus. In words: Anti-inflammatory activity in Wistar albino Rattus norvegicus (rat) assessed as inhibition of carrageenan-induced paw edema at 27.65 mg/kg, po administered 1 hr prior to carrageenan injection measured after 3 hr by mercury plethysmometer (reference value: 0%). It is filed as functional.
Data set [33] has as its system Rattus norvegicus. The experiment in a line: Anti-inflammatory activity in Wistar albino Rattus norvegicus (rat) assessed as inhibition of carrageenan-induced paw edema at 27.65 mg/kg, po administered 1 hr prior to carrageenan injection measured after 8 hr by mercury plethysmometer (reference value: 0%). The data set is classed as functional.
In data set [34] the test system is Rattus norvegicus. The experiment in a line: Anti-inflammatory activity in Wistar albino Rattus norvegicus (rat) assessed as inhibition of carrageenan-induced paw edema at 27.65 mg/kg, po administered 1 hr prior to carrageenan injection measured after 2 hr by mercury plethysmometer (reference value: 0%). The data set is classed as functional.
Data set [35] deals with Rattus norvegicus. The experiment in a line: Anti-inflammatory activity in Wistar albino Rattus norvegicus (rat) assessed as inhibition of carrageenan-induced paw edema at 27.65 mg/kg, po administered 1 hr prior to carrageenan injection measured after 4 hr by mercury plethysmometer (reference value: 0%). The data set is classed as functional.

The inhibition in vivo is the change of the read-out against control, counted positive when it falls. For `Cc1cccc(Nc2ccccc2C(=O)O)c1C` [MEFENAMIC ACID], the inhibition in vivo at 13 mg/kg was 35.6% in the data set with Rattus norvegicus [1]; 52.2% in the data set on Rattus norvegicus [2]; 38.4% with Rattus norvegicus [3]; 24.3% in the data set with Rattus norvegicus [4]; 61.1% in the data set with Mus musculus [5]; 20% in the data set on Rattus norvegicus [6]. Besides, in the data set with Rattus norvegicus [8], the inhibition in vivo at 13 mg/kg was found to be 53.1%. The UI in the data set on Rattus norvegicus [7] is on record as 3.17.

On to `CC(C)c1c(CO)n(C)n(-c2ccccc2)c1=O` [3-HYDROXYMETHYL PROPYPHENAZONE], for which the inhibition in vivo at 23 mg/kg in the data set with Rattus norvegicus [9] was 31.5%; in the data set with Rattus norvegicus [11] it was 31.2%; in the data set on Rattus norvegicus [12], 12%; with Rattus norvegicus [13], 23.7%; in the data set on Mus musculus [14], 78.3%; with Rattus norvegicus [15], 46.4%. In the data set on Rattus norvegicus [16], the inhibition in vivo at 23 mg/kg turned out to be 40.2%. For the same molecule, the UI with Rattus norvegicus [10] worked out at 1.25.

As a reminder, the half-life is the time needed for the level to fall by half in the phase considered. Low readings indicate rapid decline, high ones slow decline. With `Cc1cccc(Nc2ccccc2C(=O)OCc2c(C(C)C)c(=O)n(-c3ccccc3)n2C)c1C`, the inhibition in vivo at 24.65 mg/kg in the data set with Rattus norvegicus [17] came out at 62.9%; with Rattus norvegicus [18] it was 72.6%; in the data set on Rattus norvegicus [19], 59.1%; in the data set with Rattus norvegicus [20] it was 13.3%; in the data set with Rattus norvegicus [22], 71.4%; in the data set on Rattus norvegicus [25], 44%. Further, the inhibition in vivo at 24.65 mg/kg in the data set on Mus musculus [27] stood at 81.7%. Moreover, in data set [21], the Stability result is reported as “Stable”. Also, the half-life was 7.37 h in [23] and 16.2 h in data set [26]. Moreover, in the data set with Rattus norvegicus [24], the UI is given as 0.25.

For `Cc1cccc(Nc2ccccc2C(=O)NCC(=O)OCc2c(C(C)C)c(=O)n(-c3ccccc3)n2C)c1C`, the inhibition in vivo at 27.65 mg/kg in the data set on Rattus norvegicus [28] turned out to be 23.3%; in the data set on Mus musculus [29], 63.9%; in the data set with Rattus norvegicus [31] it was 38.5%; in the data set on Rattus norvegicus [32], 85.7%; in the data set on Rattus norvegicus [33] it was 10%; in the data set with Rattus norvegicus [34], 77.2%. Moreover, in the data set on Rattus norvegicus [35], the inhibition in vivo at 27.65 mg/kg was 83.7%. The UI in the data set with Rattus norvegicus [30] stood at 1. Moreover, the Stability entry in [21] was “Stable”. Also, the half-life in data set [23] was 8.98 h; in data set [26], 18.7 h.
